# Patent publication US11117921B2, “Methods for synthesizing nucleotide analogues with disulfide linkers” (IsoPlexis Corporation, priority 2015, dated 2021)
# Assay: Cleavage experiments with thiol cleavage agents, RP-HPLC (FIG. 77, 78A-B)
# Conditions: RP-HPLC after 10 minutes of incubation with cleave reagent
# Excerpt: In addition to these a variety of suitable cleaving agents can be used such as Bis(2-mercaptoethyl)sulfone (BMS) and N,N′-dimethyl-N,N-bis(mercaptoacetyl)hydrazine (DMH) (Singh et al., Bioorg. Chem., 22, 109-115 (1994). Reactions can be further catalyzed by inclusion of selenols (Singh et al. Anal Biochem. 1995 Nov. 20; 232(1):86-91 [18]). Borohydrides, such as sodium borohydrides can also be used for this purpose (Stahl et al., Anal. Chem., 1957, 29 (1), pp 154-155 [19]) as well as ascorbic acid (Nardai et al., J. Biol. Chem. 276, 8825-8828 (2001)). In addition, enzymatic methods for cleavage of disulfide bonds are also well known such as disulfide and thioreductase and can be used with compounds of the present invention (Holmgren et al., Methods in Enzymology, Volume 252, 1995, Pages 199-208 [21]).
row,Compound,composition of cleavage reaction mixture (extent of cleavage)
1,NCCS [cysteamine],full cleavage of both linker and the 3′-protective groups
2,"O[C@H](CS)[C@H](O)CS (racemic) [DTT, dithiothreitol]",full cleavage of both linker and the 3′-protective groups
3,N[C@@H](CS)C(=O)O [L-cysteine],full cleavage of both linker and the 3′-protective groups
4,OC(=S)CCC(O)=S [dithiosuccinic acid],selective cleavage of 3′-O-protective group
